The source of these data is PubChem BioAssay AID608 (Sanford-Burnham Center for Chemical Genomics, 2007).

As usually defined, the Kd is the free concentration of one partner at which half of the binding sites on the other are occupied at equilibrium, for simple one-to-one binding.

Values joined by “and” are separate entries in the source; they are usually repeats but may differ in a detail not shown here. Equal entries are not always repeated. Active and inactive are the calls of the source. How the calls were made is not given here.

For the assay, the target named is Peptidyl-prolyl cis-trans isomerase FKBP1A (Homo sapiens) (UniProt P62942). As to the kind of experiment: FKBP12 binders, biophysical, NMR detection (AID 608). To be noted: NMR binding, purified FKBP12.
Chain of Peptidyl-prolyl cis-trans isomerase FKBP1A (Homo sapiens) (P62942 whole entry, looked up): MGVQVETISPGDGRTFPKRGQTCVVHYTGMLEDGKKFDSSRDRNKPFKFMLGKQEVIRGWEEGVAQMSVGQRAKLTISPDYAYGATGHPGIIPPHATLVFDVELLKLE
Turning to `c1ccc(Cc2nnc3sc(-c4cccnc4)nn23)cc1`, the Kd was > 4 mM (inactive). `C=CCn1c(N)c(C(=O)N2CCOCC2)sc1=S`: the Kd is > 4 mM (inactive). As for `O=C1CN(C(=O)c2ccccc2F)c2ccccc2N1`, the Kd is > 4 mM (inactive). Regarding `CC(C)NS(=O)(=O)c1ccc(OCC(=O)N2CCOCC2)cc1`, the Kd result is “inactive”.

On to `O=C(Nc1cccnc1)c1cccs1`, for which the Kd was > 4 mM (inactive). As to `Nc1ccc(S(=O)(=O)Nc2nccs2)cc1`, the Kd was > 4 mM (inactive). As to `O=C(NCc1ccccn1)c1ccc(Cl)cc1Cl`, the Kd is > 4 mM (inactive). Consider `Cc1ccc(C)n1NC(=O)c1cccs1`, for which the Kd is > 4 mM (inactive). For `Nc1cncc(C(=O)O)c1` the value was > 4 mM (inactive); for `O=S(=O)(Nc1ccc(Br)cc1)N1CCOCC1`, “inactive”. `COC(=O)c1scc(S(C)(=O)=O)c1-n1cccc1`: the Kd is > 4 mM (inactive).

Regarding `Cc1nn2c3ccccc3nc2n(Cc2ccccc2)c1=O`, the Kd is > 4 mM (inactive).

In the case of `O=[N+]([O-])c1cccc(CN2CCC(O)CC2)c1`, the Kd is > 4 mM (inactive). Regarding `Cc1ccc(C)c(S(=O)(=O)NCc2cccnc2)c1`, the Kd was > 4 mM (inactive). As for `NC(=O)c1cccnc1Oc1ccccc1`, the Kd was > 4 mM (inactive). With `NC(=O)C1CCCN1S(=O)(=O)c1ccc(F)cc1` (stereo not drawn), the Kd is > 4 mM (inactive).

As for `O=C(Nc1ccc2c(c1)OCO2)c1cnn2cccnc12`, the Kd was > 4 mM (inactive). In the case of `CCCS(=O)(=O)N1CCN(c2ccccn2)CC1`, the Kd is > 4 mM (inactive). With `NC(=O)CSc1nc2ccccc2c(=O)[nH]1`, the Kd was > 4 mM (inactive). For the compound `COc1ncnc(N)c1[N+](=O)[O-]`, the Kd is > 4 mM (inactive). Regarding `Cc1ccc(NS(=O)(=O)N2CCCCC2)c(C)c1`, the equilibrium dissociation constant (Kd) is 0.436 mM. In the case of `Cc1nnc(SCC(N)=O)c2ccccc12`, the Kd is > 4 mM (inactive). With `CC(C)c1ccccc1NC(=O)c1cnccn1` the figure was > 4 mM (inactive); with `COc1nc(C#N)c(N2CCOCC2)o1`, > 4 mM (inactive).

For `Nc1ccc(C2SCCS2)cc1`, the Kd was > 4 mM (inactive).

Turning to `CC(=O)Nc1nc(C)c(C(C)=O)s1`, the Kd is > 4 mM (inactive). Turning to `Brc1ccc(-c2nc(-c3ccncc3)no2)o1`, the Kd was > 4 mM (inactive). Take `CC(=O)O[C@@H]1CC2C(C)(C)C=CC(=O)[C@]2(C)C2CC[C@@]3(C)[C@H](c4ccoc4)OC(=O)C4OC43[C@@]21C` (stereo partly drawn): the Kd was > 4 mM (inactive). Consider `C[C@H](CCC(=O)O)[C@H]1CCC2C3C(CC[C@@]21C)[C@@]1(C)CC[C@@H](O)C[C@H]1C[C@@H]3O` (stereo partly drawn), for which the Kd was > 4 mM (inactive).

For the compound `CC1=NN(c2ccc(N)cc2)C(=O)C1`, the Kd was > 4 mM (inactive). In the case of `O=C(O)CCS(=O)(=O)c1ccccc1`, the Kd was > 4 mM (inactive). Regarding `Cc1ccccc1N1C(=O)CC(=O)NC1=O`, the Kd is > 4 mM (inactive). For `CCOC(=O)c1ccc(NS(=O)(=O)N2CCOCC2)cc1` the value was “inactive”; for `Nc1ccnc(C(=O)O)c1`, > 4 mM (inactive); for `O=C1C2CC=C(Cl)CC2C(=O)N1c1ccccc1O` (stereo not drawn), > 4 mM (inactive).

With `CC(C)C(=O)NCC(c1ccco1)N1CCOCC1` (stereo not drawn), the Kd was > 4 mM (inactive).

As to `O=[N+]([O-])c1ccc(NS(=O)(=O)N2CCCCC2)cc1`, the Kd is 0.06 mM.

On to `NC(c1ccccc1)c1ccccn1` (stereo not drawn), for which the Kd was > 4 mM (inactive). Consider `COc1ccc(C(=O)/C=C/c2ccccc2)cc1`, for which the Kd was > 4 mM (inactive).

For the compound `Nc1nnc(COc2cccc(C(F)(F)F)c2)s1`, the Kd was > 4 mM (inactive). Regarding `O=C(O)c1ccc(-n2cccn2)cc1`, the Kd was > 4 mM (inactive). Regarding `O=c1c(-c2ccc(O)cc2)coc2cc(O)ccc12`, the Kd was > 4 mM (inactive). For `C=C1CCC(C2CC(=O)OC2=O)C(=O)CCC2C1CC2(C)C` (stereo not drawn), the Kd was > 4 mM (inactive). For the compound `NC(=O)C1CCN(C(=O)c2ccccc2)CC1`, the Kd is > 4 mM (inactive). In the case of `CC(=O)c1cnc(Nc2nc(C)c3ccccc3n2)nc1C`, the Kd was > 4 mM (inactive). Regarding `O=[n+]1cc(C2=CC=CCC2)n([O-])c2c1CCCCC2`, the Kd was > 4 mM (inactive). With `CC(=O)N1CC2(C)CN(C(C)=O)CC(C)(C1)C2` the figure was > 4 mM (inactive). For `O=C1c2ccccc2C(=O)c2c1ccc(O)c2O`, the Kd was > 4 mM (inactive). Turning to `CC1(C)CC2C1CC[C@]1(C)CCC3C(C(=O)O)CC(=O)O[C@@]32C1` (stereo partly drawn), the Kd was > 4 mM (inactive). With `COc1ccccc1NC(=O)C1CCC(=O)N1` (stereo not drawn) the figure was > 4 mM (inactive); with `CC(=O)O[C@H]1C[C@@H](OC(C)=O)C(C)(C)C2C[C@@H](OC(C)=O)[C@]3(C)C(CC[C@@]4(C)[C@H](c5ccoc5)C(=O)[C@H]5O[C@]543)[C@]21C` (stereo partly drawn), > 4 mM (inactive). With `O=C(O)C1=CCCNC1` the figure was > 4 mM (inactive); with `O=C(CSc1ccc(Cl)cc1)N1CCOCC1`, 0.014 mM and 0.019 mM.

For `O=C1c2cccnc2C(=O)N1Cc1ccco1`, the Kd is > 4 mM (inactive). `CNC(=O)Nc1cccc(C(F)(F)F)c1`: the Kd was > 4 mM (inactive). `Cc1cc(C)n(CC(=O)O)n1`: the Kd was > 4 mM (inactive).

On to `COc1cccc(OCC(=O)N2CCOCC2)c1`, for which the Kd entry is “inactive”. With `CC(=O)c1ccc(NC(=S)N2CCC(O)CC2)cc1` the figure was > 4 mM (inactive).

As to `CNc1nnc(CSc2nc(C)cc(C)n2)s1`, the Kd was > 4 mM (inactive). On to `CC(=O)O[C@@H]1CC2C(C)(C)[C@@H](O)CC[C@]2(C)C2CC[C@@]3(C)[C@H](c4ccoc4)OC(=O)[C@H]4O[C@]43[C@@]21C` (stereo partly drawn), for which the Kd was > 4 mM (inactive).

As for `OCc1ccc2c(c1)OCCO2`, the Kd was > 4 mM (inactive). `O=C(/C=C/c1ccco1)NC1=NCCS1`: the Kd was > 4 mM (inactive). For `Cn1ncc(C(=O)NC2CCCCC2)c1Cl`, the Kd was > 4 mM (inactive).

`CC(=O)O[C@@H]1CC2C(C)(C)[C@H](O)C=C[C@]2(C)C2CC[C@@]3(C)[C@H](c4ccoc4)OC(=O)C4OC43[C@@]21C` (stereo partly drawn): the Kd is > 4 mM (inactive).

As to `CC(=O)Nc1ccc(C(=O)NC2=NCCS2)cc1`, the Kd was > 4 mM (inactive). On to `COC(=O)[C@@H]1OC(=O)C2OC23[C@@]1(C)CCC1[C@]2(C)C(C[C@H](O)[C@]13C)C(C)(C)[C@H](OC(C)=O)C[C@@H]2OC(C)=O` (stereo partly drawn), for which the Kd was > 4 mM (inactive). For `O=C(O)c1ccnn1-c1ccccc1` the value was > 4 mM (inactive). Consider `Cn1[nH]c2nc3[nH]n(C)c(=O)c3c(-c3ccccc3)c2c1=O`, for which the Kd is > 4 mM (inactive). As for `Cc1nc2cc(Cl)ccc2n1CCO`, the Kd is > 4 mM (inactive).

With `NC1=C([N+](=O)[O-])C(=O)c2ccccc21`, the Kd was > 4 mM (inactive). Regarding `COc1ccc(NC(=O)N2CCCCC2)cc1`, the Kd was > 4 mM (inactive). With `O=c1c(O)cccc2cc(O)c(O)c(O)c12`, the Kd is > 4 mM (inactive).

Take `CSc1ncc(C(=O)O)n1Cc1ccccc1`: the Kd is > 4 mM (inactive). Turning to `CC1(C)CC[C@]2(C(=O)O)CC[C@]3(C)C(=CCC4[C@@]5(C)CC[C@@H](O)C(C)(C)C5CC[C@]43C)C2C1` (stereo partly drawn), the Kd is > 4 mM (inactive). `c1ccc(-c2nc3ccccc3nc2-c2ccccn2)nc1`: the Kd is > 4 mM (inactive). Take `O=C(O)Cn1cc(C(=O)C2CC2)c2ccccc21`: the Kd was > 4 mM (inactive). Consider `NC(=O)CCS(=O)(=O)CCN1CCOCC1`, for which the Kd was > 4 mM (inactive). For `Nc1cccc(S(=O)(=O)N2CCCCC2)c1`, the Kd was > 4 mM (inactive).

Consider `O=S(=O)(c1ccc(F)c(Cl)c1)N1CCCC1`, for which the Kd is > 4 mM (inactive). For `O=[n+]1c2c(n([O-])c3ccccc31)CCCC2`, the Kd was > 4 mM (inactive).

On to `CCC(=O)NC(=S)Nc1ccc(N2CCOCC2)cc1`, for which the Kd was > 4 mM (inactive). `CC(C)NC(=S)NCc1cnn(C)c1`: the Kd was > 4 mM (inactive). With `C[C@]12C=CC(=O)C=C1CCC1C2CC[C@]2(C)C(=O)CCC12` (stereo partly drawn) the figure was > 4 mM (inactive); with `NCCc1nc2ccccc2[nH]1`, > 4 mM (inactive). With `COC(=O)[C@@H]1OC(=O)C2OC23[C@@]1(C)CCC1[C@@]2(C)CCC(=O)C(C)(C)C2C[C@@H](OC(C)=O)[C@]13C` (stereo partly drawn) the figure was > 4 mM (inactive). For `O=C(COc1ccc2c(c1)OCO2)N1CCOCC1`, the Kd result is “inactive”. For `NC(=O)c1ccc(N2CCCCC2)c(N)c1` the value was > 4 mM (inactive); for `O=C1CCCC(=O)N1c1ccc(O)cc1`, > 4 mM (inactive); for `Cc1noc(C)c1C(=O)N1CCC(Cc2ccccc2)CC1`, > 4 mM (inactive). For the compound `OCc1ccc(-c2ccccn2)s1`, the Kd was > 4 mM (inactive). As for `CSc1nsc(SCc2cnc(C)nc2N)n1`, the Kd is > 4 mM (inactive).

Take `Nc1ccc(N2CCOCC2)c(Cl)c1`: the Kd was > 4 mM (inactive). As to `Cc1cc(C(F)(F)F)nn1CC(N)=O`, the Kd was > 4 mM (inactive). Turning to `COc1ccc2c(c1OC)C(=O)OC2[C@H]1c2c(cc3c(c2OC)OCO3)CCN1C` (stereo partly drawn), the Kd was > 4 mM (inactive). As for `O=C(COc1cc(Cl)c(Cl)cc1Cl)N1CCOCC1`, the Kd entry was “inactive”. As to `C=C[C@@](C)(O)CCC1C(=C)C[C@H](O)C2C(C)(C)CCCC12C` (stereo partly drawn), the Kd was > 4 mM (inactive). For `CC(=O)OC1CCC23C(=O)OC45CCC(C6=CC(=O)OC6)C4(C)CCC2C5CCC3(O)C1` (stereo not drawn), the Kd was > 4 mM (inactive). In the case of `CC1=C(/C=C/C(C)=C/C=C/C(C)=C/C=C/C=C(C)/C=C/C=C(C)/C=C/C2=C(C)CCCC2(C)C)C(C)(C)CCC1`, the Kd is > 4 mM (inactive).
